# Source: patent US20140011822A1, “METHODS AND MATERIALS FOR REDUCING VENOUS STENOSIS FORMATION OF AN ARTERIOVENOUS FISTULA OR GRAFT” (priority 2011, published 2014)
# How the values were obtained:
# [1] = system: outflow vein of arteriovenous fistula; assay: Histomorphometry of outflow vein (neointima, media/adventitia, lumen area, cell density), simvastatin; format: in vivo, mice; conditions: for Average reduction of media/adventitia area: not statistically significant (P=0.03)
# Experimental: (§1) Animals were housed at 22° C. temperature, 41% relative humidity, and 12-/12-hour light/dark cycles. Animals were allowed access to water and food ad libitum. […] Sixty-eight male C57BL/6 mice (Jackson Laboratories, Bar Harbor, Me.) weighing 25-30 grams were used for the present study (FIG. 18). Chronic kidney disease was created by surgical removal of the right kidney accompanied by ligation of the arterial blood supply to the upper pole of the left kidney as described elsewhere (Misra et al., J. Vasc. Interv. Radiol., 21:1255-1261 (2010); see, also, FIG. 18A). Three weeks after nephrectomy, the animals were started on simvastatin (40 mg/kg administered i.p. three times per week) or PBS (equal amount of volume used for simvastatin i.p. controls). Simvastatin was prepared as described elsewhere (Wilson et al., Arterioscler Thromb. Vasc. Biol., 21:122-128 (2001)). A week later, an AVF was created by connecting the right carotid artery to the ipsilateral jugular vein (FIG. 18B; see, also, Misra et al., J. Vasc. Interv. Radiol., 21:1255-1261 (2010) and Yang et al., J. Vasc. Interv. Radiol., 20:946-950 (2009)). Animals were sacrificed at day 7, day 14, and day 28 following AVF placement for real time polymerase chain reaction (RT-PCR) and histomorphometric analyses (FIG. 18C). Serum BUN and creatinine were measured by removing blood from the tail vein at baseline (before nephrectomy), at AVF creation, and at the time of sacrifice. […] These animals were started on simvastatin (40 mg/kg i.p.) or PBS (equal amount of volume i.p.) every other day one week before AVF placement and then sacrificed four weeks after fistula placement for histomorphometric analysis.
# At euthanasia, all mice were anesthetized, and the arterio-venous fistula was carefully dissected from of the surrounding tissue. Animals were euthanized by use of CO2 asphyxiation, and the outflow veins harvested for RT-PCR or histomorphometric analyses as described elsewhere (Misra et al., Kidney Int., 68:2890-2900 (2005); Misra et al., J. Vasc. Interv. Radiol., 21:1255-1261 (2010); and Misra et al., Am. J. Physiol. Heart Circ. Physiol., 294:H2219-2230 (2008)).
# (§2) Morphometric analysis was performed as described elsewhere (Misra et al., Kidney Int., 68:2890-2900 (2005); and Misra et al., Am. J. Physiol. Heart Circ. Physiol., 294:H2219-2230 (2008)). Briefly, the outflow vein was sectioned into multiple contiguous 4-μm paraffin embedded sections. Typically, 2 to 3 sections per animal for each group (simvastatin and controls) and time point (day 14 and day 28) were photographed and then quantified using KS 400 (Carl Zeiss, Inc., Thornwood, N.Y.) semiquantitative program.
# α-SMA = assay: Confocal microscopy for α-SMA plus phalloidin in NIH 3T3 cells, simvastatin; format: cell-based
# Experimental: (§3) One hundred thousand NIH 3T3 cells were treated with simvastatin (1 μM, 5 μM, or 10 μM) or controls and made hypoxic for 24 hours as described elsewhere (Misra et al., J. Vasc. Interv. Radiol., 21:896-902 (2010)).
# CTGF = assay: RT-PCR for CTGF at outflow vein, simvastatin; format: in vivo, mice; conditions: day 14
# Experimental: Animals were housed at 22° C. temperature, 41% relative humidity, and 12-/12-hour light/dark cycles. Animals were allowed access to water and food ad libitum. […] Sixty-eight male C57BL/6 mice (Jackson Laboratories, Bar Harbor, Me.) weighing 25-30 grams were used for the present study (FIG. 18). Chronic kidney disease was created by surgical removal of the right kidney accompanied by ligation of the arterial blood supply to the upper pole of the left kidney as described elsewhere (Misra et al., J. Vasc. Interv. Radiol., 21:1255-1261 (2010); see, also, FIG. 18A). Three weeks after nephrectomy, the animals were started on simvastatin (40 mg/kg administered i.p. three times per week) or PBS (equal amount of volume used for simvastatin i.p. controls). Simvastatin was prepared as described elsewhere (Wilson et al., Arterioscler Thromb. Vasc. Biol., 21:122-128 (2001)). […] Serum BUN and creatinine were measured by removing blood from the tail vein at baseline (before nephrectomy), at AVF creation, and at the time of sacrifice. […]
# Expression for the gene of interest was determined using RT-PCR analysis as described elsewhere (Misra et al., J. Vasc. Interv. Radiol., 21:1255-1261 (2010)). […]
# Ki-67 = Ki-67 staining of outflow vein, simvastatin; format: in vivo, mice; conditions: vs control
# Experimental: Multiple serial four-micrometer sections were stained and analyzed. Cellular proliferation was determined by staining for Ki-67 on sections removed from the outflow vein for simvastatin treated vessels or control groups. Smooth muscle density (α-SMA) or proliferation index (Ki-67) was determined by staining on sections removed from the outflow vein by performing quantification at the different time points. Immunohistochemistry for Ki-67 and α-SMA was performed on paraffin-embedded sections from the outflow vein after transfection with either simvastatin or controls using the Vectastain Elite ABC system (Vector Laboratories, Burlingame, Calif., USA). The following antibodies were used: mouse monoclonal antibody Ki-67 (DAKO, Carpentaria, Calif.; 1:400) or rabbit polyclonal antibody to mouse for α-SMA (Abcam, Cambridge, Mass.; 1:400).
# as §2
# [2] = system: hypoxic changes in the outflow vein; assay: Hypoxyprobe staining of outflow vein, simvastatin; format: in vivo, mice; conditions: for average reduction of hypoxyprobe staining: vs control
# Experimental: Hypoxic changes were assessed in the outflow vein of simvastatin treated vessels or control groups using Hypoxyprobe™-1 (EMD Millipore, Billerica, Mass.), a substituted derivative of pimonidazole hydrochloride. Hypoxyprobe™-1 upon activation forms stable covalent adducts with thiol groups of polypeptides and amino acids of hypoxic tissue. Mice were injected with 60 mg/kg Hypoxyprobe™-1 i.p. Thirty minutes following injection, mice were sacrificed, and outflow veins were dissected and fixed as specified for histological analysis. Four-micrometer thick paraffin embedded sections were stained with the anti-hypoxyprobe-1 Ab as per the manufacturer's directions.
# HIF-1α = assay: RT-PCR for HIF-1α at outflow vein, simvastatin; format: in vivo, mice; conditions: for average reduction of HIF-1α gene expression: vs control
# Experimental: as §1
# (§4) The tissue was stored in RNA stabilizing reagent (Qiagen, Gaithersburg, Md.) as per the manufacturer's guidelines. To isolate the RNA, the specimens were homogenized, and total RNA was isolated using RNeasy mini kit (Qiagen) (Misra et al., J. Vasc. Interv. Radiol., 21:1255-1261 (2010); and Yang et al., J. Vasc. Interv. Radiol., 20:946-950 (2009)).
# (§5) Expression for the gene of interest was determined using RT-PCR analysis as described elsewhere (Misra et al., J. Vasc. Interv. Radiol., 21:1255-1261 (2010)). Commercial PCR primers for the gene of interest were purchased from SA Biosciences (Frederick, Md.).
# NIH 3T3 cells [3] = assay: Proliferation (thymidine incorporation) assay in NIH 3T3 cells, simvastatin; format: cell-based
# Experimental: as §3
# One hundred thousand NIH 3T3 cells were treated with simvastatin or controls and made hypoxic for 24 hours. Next, they were seeded in a 6-well plate and cultured for 24 hours in DMEM medium. After 20 hours, […] of (^3H) thymidine was added to each well. Four hours later, the cells were washed with chilled PBS, fixed with 100% cold methanol, and collected for measurement of trichloroacetic acid-precipitable for radioactivity. Experiments were repeated three times for each time point.
# MMP-9 = assay: RT-PCR for MMP-9 at outflow vein, simvastatin; format: in vivo, mice
# Experimental: as §1, §4, §5
# NIH 3T3 cells [4] = assay: Cell migration (matrigel invasion) assay in NIH 3T3 cells, simvastatin; format: cell-based
# Experimental: as §3
# NIH 3T3 cells were synchronized for 24 hours in serum free media. Next, one hundred thousand NIH 3T3 cells were treated with simvastatin or controls and seeded in 8-micron trans-wells that were pre-coated with low growth factor matrigel in a serum free media. The complete media was supplemented under the trans-well and incubated for 6 hours at 37° C. After 6 hours, trans-wells were washed with PBS and fixed with paraformaldehye (4% v/v). Finally, trans-wells were stained with bromophenol (0.1%) solution. The cells from upper side were removed with cotton tip applicators. The cells at bottom side were counted for analysis.
compound,measurement,setting,value
CCC(C)(C)C(=O)O[C@H]1C[C@@H](C)C=C2C=C[C@H](C)[C@H](CC[C@@H]3C[C@@H](O)CC(=O)O3)[C@H]21 [simvastatin],average increase of lumen vessel area,"[1]; day 28, vs control",343%
same,average reduction of media/adventitia cell density,"[1]; day 28, vs control",35%
same,average reduction of neointima area,"[1]; day 28, vs control",45%
same,average reduction of neointima cell density,"[1]; day 28, vs control",70%
same,Average reduction of media/adventitia area,"[1]; day 28, vs control",32%
same,average cell density of the media/adventitia,[1]; day 28 normal,1.67±0.1
same,average cell density of the neointima,[1]; day 28 normal,2.63±0.11
same,average reduction of media/adventitia cell density,"[1]; day 28 normal, vs control",71%
same,average reduction of neointima cell density,"[1]; day 28 normal, vs control",61%
same,Average reduction of media/adventitia area,"[1]; day 28 normal, vs control",29%
same,average reduction in α-SMA plus phalloidin staining,"α-SMA; 5 μM, 24 hours of hypoxia",52%
same,average reduction in α-SMA plus phalloidin staining,"α-SMA; 5 μM, 24 hours of normoxia",62%
same,average reduction in α-SMA plus phalloidin staining,"α-SMA; 10 μM, 24 hours of hypoxia",82%
same,average reduction in α-SMA plus phalloidin staining,"α-SMA; 10 μM, 24 hours of normoxia",94%
same,mean gene expression of CTGF,CTGF,0.29±0.05
same,average reduction of CTGF gene expression,CTGF; vs control,45%
same,average reduction of Ki-67 density,Ki-67; day 14,66%
same,average reduction of Ki-67 density,Ki-67; day 28,76%
same,average reduction of Ki-67 density,Ki-67; day 28 normal,77%
same,average density of hypoxyprobe staining,[2]; day 14,18.33±2.06
same,average reduction of hypoxyprobe staining,[2]; day 14,53%
same,average density of hypoxyprobe staining,[2]; day 28,13.01±4.62
same,average reduction of hypoxyprobe staining,[2]; day 28,70%
same,reduction of hypoxyprobe staining,"[2]; day 28 normal, vs control (P=0.0103)",72%
same,mean gene expression of HIF-1α,HIF-1α; day 7,0.45±0.12
same,average reduction of HIF-1α gene expression,HIF-1α; day 7,54%
same,mean gene expression of HIF-1α,HIF-1α; day 14,0.34±0.04
same,average reduction of HIF-1α gene expression,HIF-1α; day 14,54%
same,average reduction in proliferative ability,"NIH 3T3 cells [3]; 5 μM, 24 hours hypoxia",83%
same,average reduction in proliferative ability,"NIH 3T3 cells [3]; 5 μM, 24 hours normoxia",75%
same,average reduction in proliferative ability,"NIH 3T3 cells [3]; 10 μM, 24 hours hypoxia",92%
same,average reduction in proliferative ability,"NIH 3T3 cells [3]; 10 μM, 24 hours normoxia",94%
same,average gene expression of MMP-9,MMP-9; day 7,0.19±0.03
same,Average reduction of MMP-9 gene expression,"MMP-9; day 7, vs control",69%
same,average gene expression of MMP-9,MMP-9; day 14,0.37±0.02
same,Average reduction of MMP-9 gene expression,"MMP-9; day 14, vs control",41%
same,average reduction of migratory capacity,"NIH 3T3 cells [4]; 5 μM, 24 hours hypoxia",47%
same,average reduction of migratory capacity,"NIH 3T3 cells [4]; 5 μM, 24 hours normoxia",32%
same,average reduction of migratory capacity,"NIH 3T3 cells [4]; 10 μM, 24 hours hypoxia",62%
same,average reduction of migratory capacity,"NIH 3T3 cells [4]; 10 μM, 24 hours normoxia",50%
